Laboratory results as given in the PolyMetriX glass transition set.

| SMILES | glass transition temperature |
| --- | --- |
| */C=C(/*)c1ccc(-n2c(=O)c3cc4c(=O)n(-c5ccc(C#C)cc5)c(=O)c4cc3c2=O)cc1 (repeat unit) | 420.00 °C |
| *C(=O)Nc1ccc(Oc2ccccc2-c2ccccc2Oc2ccc(NC(=O)c3ccc4c(c3)C(=O)N(c3ccc(Oc5ccc(N6C(=O)c7ccc(*)cc7C6=O)cc5)cc3)C4=O)cc2)cc1 (repeat unit) | 239.00 °C |
| *C(=O)Nc1ccc(Oc2ccccc2-c2ccccc2Oc2ccc(NC(=O)c3ccc4c(c3)C(=O)N(c3ccc(Oc5cccc(Oc6ccc(N7C(=O)c8ccc(*)cc8C7=O)cc6)c5)cc3)C4=O)cc2)cc1 (repeat unit) | 229.00 °C |
| *C(=O)Nc1ccc(S(=O)(=O)c2ccc(NC(=O)c3ccc4c(c3)C(=O)N(c3ccc(S(=O)(=O)c5ccc(N6C(=O)c7ccc(*)cc7C6=O)cc5)cc3)C4=O)cc2)cc1 (repeat unit) | 307.00 °C |
| *C(=O)Nc1ccc(S(=O)(=O)c2ccc(NC(=O)c3ccc4c(c3)C(=O)N(c3cccc(P(=O)(c5ccccc5)c5cccc(N6C(=O)c7ccc(*)cc7C6=O)c5)c3)C4=O)cc2)cc1 (repeat unit) | 241.00 °C |
| *C(=O)Nc1ccc(Sc2ccc(NC(=O)c3ccc4c(c3)C(=O)N(c3ccc(Oc5ccc(N6C(=O)c7ccc(*)cc7C6=O)cc5)cc3)C4=O)cc2)cc1 (repeat unit) | 284.00 °C |
| *C(=O)Nc1cccc(NC(=O)c2ccc(-c3nc4cc(*)ccc4[nH]3)cc2)c1 (repeat unit) | 325.00 °C |
| *C(=O)Nc1cccc(NC(=O)c2ccc3c(c2)C(=O)N(c2ccc(-c4sc(-c5ccc(N6C(=O)c7ccc(*)cc7C6=O)cc5)c(-c5ccccc5)c4-c4ccccc4)cc2)C3=O)c1 (repeat unit) | 334.00 °C |
| *C(=O)Nc1cccc(NC(=O)c2ccc3c(c2)C(=O)N(c2ccc(S(=O)(=O)c4ccc(N5C(=O)c6ccc(*)cc6C5=O)cc4)cc2)C3=O)c1 (repeat unit) | 311.00 °C |
| *C(=O)Nc1cccc(P(=O)(c2ccccc2)c2cccc(NC(=O)c3ccc4c(c3)C(=O)N(c3cccc(P(=O)(c5ccccc5)c5cccc(N6C(=O)c7ccc(*)cc7C6=O)c5)c3)C4=O)c2)c1 (repeat unit) | 206.00 °C |
| *C(=O)c1ccc(N(*)CCC)cc1 (repeat unit) | 136.00 °C |
| *C(=O)c1ccc(N(*)CCCC)cc1 (repeat unit) | 124.00 °C |
| *C(=O)c1ccc2c(c1)C(=O)N(c1ccc(C(=O)Nc3cccc(N4C(=O)c5ccc(*)cc5C4=O)c3)cc1)C2=O (repeat unit) | 311.00 °C |
| *C(=O)c1ccc2c(c1)C(=O)N(c1ccc(S(=O)(=O)c3ccc(NC(=O)c4cccc(C(=O)Nc5ccc(S(=O)(=O)c6ccc(N7C(=O)c8ccc(*)cc8C7=O)cc6)cc5)c4)cc3)cc1)C2=O (repeat unit) | 226.00 °C |
| *C(=O)c1ccc2c(c1)C(=O)N(c1cccc(C(=O)Nc3cccc(N4C(=O)c5ccc(*)cc5C4=O)c3)c1)C2=O (repeat unit) | 287.00 °C |
| *C(=O)c1ccc2c(c1)C(=O)N(c1cccc(NC(=O)c3cccc(C(=O)Nc4cccc(N5C(=O)c6ccc(*)cc6C5=O)c4)c3)c1)C2=O (repeat unit) | 204.00 °C |
| *CCOCCOCCOc1cccc(NC(=O)c2ccc(C(=O)Nc3cccc(O*)c3)cc2)c1 (repeat unit) | 116.00 °C |
| *Nc1ccc(*)cc1OCCCCCCCCCCCCCCCC (repeat unit) | 92.00 °C |
| *Nc1cccc(NC(=O)c2cc(C(*)=O)cc(S(=O)(=O)c3ccccc3)c2)c1 (repeat unit) | 277.00 °C |
| *Nc1cccc(NC(=O)c2cccc(C(*)=O)c2)c1 (repeat unit) | 275.00 °C |

| SMILES | glass transition temperature |
| --- | --- |
| *Oc1ccc(C(=O)c2ccc(C(=O)c3ccc(*)cc3)cc2)cc1 (repeat unit) | 157.00 °C |
| *Oc1ccc(C(=O)c2cccc(NC(=O)c3ccc(C(=O)Nc4cccc(C(=O)c5ccc(*)cc5)c4)cc3)c2)cc1 (repeat unit) | 189.00 °C |
| *Oc1ccc(C(=O)c2cccc(NC(=O)c3cccc(C(=O)Nc4cccc(C(=O)c5ccc(*)cc5)c4)c3)c2)cc1 (repeat unit) | 191.00 °C |
| *Oc1ccc(C(c2ccc(Oc3ccc(C(=O)c4ccc(C(c5ccc(C(=O)c6ccc(*)cc6)cc5)(C(F)(F)F)C(F)(F)F)cc4)cc3)cc2)(C(F)(F)F)C(F)(F)F)cc1 (repeat unit) | 185.00 °C |
| *Oc1ccc(Oc2ccc(C(=O)c3cccc(NC(=O)c4ccc(C(=O)Nc5cccc(C(=O)c6ccc(*)cc6)c5)cc4)c3)cc2)cc1 (repeat unit) | 210.00 °C |
| *Sc1ccc(C(=O)c2ccc(C(c3ccc(C(=O)c4ccc(*)cc4)cc3)(C(F)(F)F)C(F)(F)F)cc2)cc1 (repeat unit) | 175.00 °C |
| *Sc1ccc(Nc2ccc(Nc3ccc(*)cc3)cc2)cc1 (repeat unit) | 114.00 °C |
| *c1ccc(-c2cc(-c3ccc(-c4ccccc4)cc3)cc(-c3ccc(N4C(=O)c5ccc(NC(=O)Nc6cccc7c(NC(=O)Nc8ccc9c(c8)C(=O)N(*)C9=O)cccc67)cc5C4=O)cc3)n2)cc1 (repeat unit) | 254.00 °C |
| *c1ccc(C(=O)Nc2cccc(-n3c(=O)c4cc5c(=O)n(*)c(=O)c5cc4c3=O)c2)cc1 (repeat unit) | 390.00 °C |
| *c1ccc(C(=O)Nc2cccc(Oc3ccc(S(=O)(=O)c4ccc(Oc5cccc(NC(=O)c6ccc(N7C(=O)c8ccc(-c9cccc%10c9C(=O)N(*)C%10=O)cc8C7=O)cc6)c5)cc4)cc3)c2)cc1 (repeat unit) | 241.00 °C |
| *c1ccc(C(=O)Nc2cccc(S(=O)(=O)c3cccc(NC(=O)c4ccc(N5C(=O)c6ccc(-c7ccc8c(c7)C(=O)N(*)C8=O)cc6C5=O)cc4)c3)c2)cc1 (repeat unit) | 256.00 °C |
| *c1ccc(NC(=O)c2cc(C(=O)Nc3ccc(S(*)(=O)=O)cc3)cc(S(=O)(=O)c3ccccc3)c2)cc1 (repeat unit) | 307.00 °C |
| *c1ccc(NC(=O)c2cccc(C(=O)Nc3ccc(S(*)(=O)=O)cc3)c2)cc1 (repeat unit) | 78.00 °C |
| *c1ccc(Oc2cccc(NC(=O)c3cc(C(=O)Nc4cccc(Oc5ccc(-c6nnc(*)o6)cc5)c4)cc(N4C(=O)c5ccccc5C4=O)c3)c2)cc1 (repeat unit) | 245.00 °C |
| *c1ccc2c(c1)C(=O)N(c1ccc(C(=O)Nc3ccc(Oc4ccccc4Oc4ccc(NC(=O)c5ccc(N6C(=O)c7ccc(C(*)(C(F)(F)F)C(F)(F)F)cc7C6=O)cc5)cc4)cc3)cc1)C2=O (repeat unit) | 281.00 °C |
| *c1ccc2c(c1)C(=O)N(c1cccc(C(=O)Nc3ccc(Oc4ccccc4Oc4ccc(NC(=O)c5cccc(N6C(=O)c7ccc(C(*)(C(F)(F)F)C(F)(F)F)cc7C6=O)c5)cc4)cc3)c1)C2=O (repeat unit) | 265.00 °C |
| *c1cccc(NC(=O)c2ccc(OCCOCCOCCOCCOc3ccc(C(=O)Nc4ccc5[nH]c(*)nc5c4)cc3)cc2)c1 (repeat unit) | 155.00 °C |
| *c1cccc(NC(=O)c2ccc(OCCOCCOCCOc3ccc(C(=O)Nc4ccc5[nH]c(*)nc5c4)cc3)cc2)c1 (repeat unit) | 180.00 °C |
| *c1cccc(NC(=O)c2ccc(OCCOCCOc3ccc(C(=O)Nc4ccc5[nH]c(*)nc5c4)cc3)cc2)c1 (repeat unit) | 215.00 °C |
